Measured values reported in the CombiSolv-Exp solvation set (Vermeire and Green 2021).

Experiment: solvent given as SMILES

CCCCOC(C)=O
solvation free energy, 298 K (in CC(=O)N(C)C): -5.24 kcal/mol | solvation free energy, 298 K (in CC(C)CCCC(C)CCCC(C)CCCCC(C)CCCC(C)CCCC(C)C): -4.52 kcal/mol | solvation free energy, 298 K (in CCCCC(CC)COC(=O)CCCCC(=O)OCC(CC)CCCC): -4.89 kcal/mol | solvation free energy, 298 K (in CCCCCC): -4.94 kcal/mol | solvation free energy, 298 K (in CCCCCCC): -4.92 kcal/mol | solvation free energy, 298 K (in CCCCCCCC): -4.9 kcal/mol | solvation free energy, 298 K (in CCCCCCCCC=CCCCCCCCC(=O)OCC(COC(=O)CCCCCCCC=CCCCCCCCC)OC(=O)CCCCCCCC=CCCCCCCCC): -5.07 kcal/mol | solvation free energy, 298 K (in CCCCCCCCCC): -4.75 kcal/mol | solvation free energy, 298 K (in CCCCCCCCCCCCCCCC): -4.52 kcal/mol | solvation free energy, 298 K (in CCCCCCCCO): -5.01 kcal/mol | solvation free energy, 298 K (in CCCCN(C=O)CCCC): -5.24 kcal/mol | solvation free energy, 298 K (in CNC(C)=O): -5.14 kcal/mol | solvation free energy, 298 K (in CO): -5.36 kcal/mol | solvation free energy, 298 K (in NC=O): -4.07 kcal/mol | solvation free energy, 298 K (in O): -2.65 kcal/mol | solvation free energy, 298 K (in [2H]O[2H]): -2.76 kcal/mol

COC(=O)c1ccc(N)cc1
solvation free energy, 298 K (in CCCO): -11.1 kcal/mol

C=C1C2CCC3C2C(C)(C)CCCC13C (stereo not given)
solvation free energy, 298 K (in O): 0.8 kcal/mol

CCF
solvation free energy, 298 K (in C1CCOC1): -1.79 kcal/mol | solvation free energy, 298 K (in CCCCCCC): -1.45 kcal/mol | solvation free energy, 298 K (in CN1CCCC1=O): -1.86 kcal/mol | solvation free energy, 298 K (in CN(C)C=O): -1.95 kcal/mol | solvation free energy, 298 K (in O): 0.41 kcal/mol

COCCOC(=O)c1ccccc1C(=O)OCCOC
solvation free energy, 298 K (in O): -13.5 kcal/mol

CC(C)C=O
solvation free energy, 298 K (in CC(=O)N(C)C): -4.04 kcal/mol | solvation free energy, 298 K (in CCCCN(C=O)CCCC): -3.78 kcal/mol | solvation free energy, 298 K (in CCOC(C)=O): -4.05 kcal/mol | solvation free energy, 298 K (in CN1CCCC1=O): -3.79 kcal/mol | solvation free energy, 298 K (in CN1CCCCC1=O): -3.92 kcal/mol | solvation free energy, 298 K (in CN(C)C=O): -4.09 kcal/mol | solvation free energy, 298 K (in CNC(C)=O): -3.68 kcal/mol | solvation free energy, 298 K (in O): -2.86 kcal/mol | solvation free energy, 298 K (in O=CN1CCOCC1): -3.63 kcal/mol

CN(C)c1ccc(C(=O)O)cc1
solvation free energy, 298 K (in CN(C)C=O): -13.8 kcal/mol | solvation free energy, 298 K (in O): -9.28 kcal/mol

COC(=O)c1ccc(OC)cc1
solvation free energy, 298 K (in O): -5.33 kcal/mol

CCCC#N
solvation free energy, 298 K (in C=CCCCCCCCCCCCCCC): -3.53 kcal/mol | solvation free energy, 298 K (in CC(C)(C)O): -4.67 kcal/mol | solvation free energy, 298 K (in CC(C)CO): -4.56 kcal/mol | solvation free energy, 298 K (in CC(C)O): -4.6 kcal/mol | solvation free energy, 298 K (in CCC(C)O): -4.57 kcal/mol | solvation free energy, 298 K (in CCCCCC): -3.75 kcal/mol | solvation free energy, 298 K (in CCCCCCC): -3.68 kcal/mol | solvation free energy, 298 K (in CCCCCCCCCCCCCCCC): -3.32 kcal/mol | solvation free energy, 298 K (in CCCCCCCCCCO): -3.92 kcal/mol | solvation free energy, 298 K (in CCCCCCCCCO): -4.07 kcal/mol | solvation free energy, 298 K (in CCCCCCCCO): -4.24 kcal/mol | solvation free energy, 298 K (in CCCCCCCO): -4.32 kcal/mol | solvation free energy, 298 K (in CCCCCCO): -4.32 kcal/mol | solvation free energy, 298 K (in CCCCCO): -4.47 kcal/mol | solvation free energy, 298 K (in CCCCO): -4.62 kcal/mol | solvation free energy, 298 K (in CO): -5.21 kcal/mol | solvation free energy, 298 K (in O): -3.63 kcal/mol | solvation free energy, 298 K (in [2H]O[2H]): -3.58 kcal/mol

CCCCC(C)(C)O
solvation free energy, 298 K (in CCCCCCCC): -5.29 kcal/mol | solvation free energy, 298 K (in CCCCCCCCCC): -5.22 kcal/mol

c1ccoc1
solvation free energy, 298 K (in CC(=O)N(C)C): -3.72 kcal/mol | solvation free energy, 298 K (in CCCCN(C=O)CCCC): -3.27 kcal/mol | solvation free energy, 298 K (in CNC(C)=O): -3.23 kcal/mol | solvation free energy, 298 K (in O): -0.9 kcal/mol

CC1=CCC2CC1C2(C)C (stereo not given)
solvation free energy, 298 K (in O): 0.97 kcal/mol

CC(C)[N+](=O)[O-]
solvation free energy, 298 K (in CCCCCCC): -3.81 kcal/mol | solvation free energy, 298 K (in ClC(Cl)(Cl)Cl): -4.57 kcal/mol | solvation free energy, 298 K (in O): -3.13 kcal/mol | solvation free energy, 298 K (in c1ccccc1): -5.07 kcal/mol

COCCN
solvation free energy, 298 K (in O): -6.55 kcal/mol

CCCCCCCCCC(C)C
solvation free energy, 298 K (in O): 4.04 kcal/mol

Clc1ccc(Cl)c(-c2cc(Cl)ccc2Cl)c1
solvation free energy, 298 K (in CCCCCCCCO): -11.2 kcal/mol | solvation free energy, 298 K (in O): -2.55 kcal/mol

Nc1ccc(S(=O)(=O)Nc2ccnn2-c2ccccc2)cc1
solvation free energy, 298 K (in O): -21.2 kcal/mol

Clc1cc(Cl)c(-c2cc(Cl)c(Cl)cc2Cl)cc1Cl
solvation free energy, 298 K (in CCCCCCCCO): -12.9 kcal/mol | solvation free energy, 298 K (in O): -3.1 kcal/mol

OCCO
solvation free energy, 298 K (in O): -9.3 kcal/mol

O=Nc1c(O)ccc2ccccc12
solvation free energy, 298 K (in O): -7.31 kcal/mol

CC1=CCC2CC3C(C)CCC13C2(C)C (stereo not given)
solvation free energy, 298 K (in O): 0.78 kcal/mol
